Measurements published in ChEMBL document CHEMBL5120768, “Discovery of Anticancer Agents of Diverse Natural Origin” (J Nat Prod, 2022).
Each block holds one molecule with its values, some of them ahead of it.

Tests used:
MDA-MB-435 [1] = experiment: Antiproliferative activity against human MDA-MB-435 cells; type: functional, cell-based
MDA-MB-231 [2] = experiment: Antiproliferative activity against human MDA-MB-231 cells; type: functional, cell-based
MDA-MB-231 [3] = experiment: Antiproliferative activity against human MDA-MB-231 cells after 72 hrs by CellTiter 96 AQueous One Solution Cell Proliferation assay; type: functional, cell-based; details: MDA-MB-231, 72 h
20S proteasome = experiment: Inhibition of chymotrypsin-like activity of human erythrocytes 20S proteasome using Suc-LLVY-AMC as substrate and measured by fluorescence assay
MDA-MB-435 [4] = experiment: Antiproliferative activity against human MDA-MB-435 cells after 72 hrs by CellTiter 96 AQueous One Solution Cell Proliferation assay; type: functional, cell-based; details: MDA-MB-435, 72 h
HT-29 [5] = experiment: Antiproliferative activity against human HT-29 cells after 72 hrs by CellTiter 96 AQueous One Solution Cell Proliferation assay; type: functional, cell-based; details: HT-29, 72 h
OVCAR-3 = experiment: Antiproliferative activity against human OVCAR-3 cells after 72 hrs by CellTiter 96 AQueous One Solution Cell Proliferation assay; type: functional, cell-based; details: OVCAR-3, 72 h
HT-29 [6] = experiment: Antiproliferative activity against human HT-29 cells after 3 days by SRB assay; type: functional, cell-based; details: HT-29, 72 h
MCF7 [7] = experiment: Antiproliferative activity against human MCF7 cells by SRB assay; type: functional, cell-based
A2780 [8] = experiment: Antiproliferative activity against human A2780 cells by SRB assay; type: functional, cell-based
[9] = Antiproliferative activity against human CCD-112CoN cells after 72 hrs by SRB assay; type: functional, cell-based
MCF7 [10] = experiment: Antiproliferative activity against human MCF7 cells; type: functional, cell-based
A2780 [11] = experiment: Antiproliferative activity against human A2780 cells; type: functional, cell-based
[12] = Antiproliferative activity against human PC-3 cells after 3 days by SRB assay; type: functional, cell-based

Compound: CO[C@H]1[C@H](O[C@H]2CC[C@]3(C=O)[C@H]4CC[C@]5(C)[C@](O)(C6=CC(=O)OC6)CC[C@]5(O)[C@@H]4CC[C@]3(O)C2)O[C@H](C)[C@H](O)[C@@H]1OC
- IC50 (MDA-MB-435 [4]): > 10 µM
- IC50 (HT-29 [5]): > 10 µM
- IC50 (OVCAR-3): > 10 µM

Compound: COc1ccc([C@@]23Oc4cc(OC)cc(OC)c4[C@]2(O)[C@H](O)[C@H](C(N)=O)[C@H]3c2ccccc2)cc1 [DIDESMETHYLROCAGLAMIDE]
- IC50 (HT-29 [6]): 0.021 µM

Compound: COc1cc(=O)oc(/C=C/C=C/C=C/C(C)=C/[C@]2(C)O[C@H](C)[C@](C)(O)[C@@H]2O)c1C
- IC50 (MCF7 [7]): 6 µM
- IC50 (A2780 [8]): 8.2 µM

Compound: C[C@H]1O[C@@H](O[C@H]2CC[C@]3(C)[C@H]4CC[C@]5(C)[C@@H](C6=CC(=O)OC6)CC[C@]5(O)[C@@H]4CC[C@]3(O)C2)C[C@H](O)[C@@H]1O[C@@H]1O[C@H](CO)[C@@H](O)[C@H](O)[C@H]1O
- IC50 [9]: 2.7 µM

Compound: CC(=O)C1=C(O)C=C2Oc3c(C(C)=O)c(O)c(C)c(O)c3C2(C)C1=O (stereo not drawn)
- IC50 (MCF7 [10]): 6.8 µM
- IC50 (A2780 [11]): 3.8 µM

Compound: COc1ccc([C@@]23Oc4cc5c(c(OC)c4[C@]2(O)[C@H](O)[C@H](C(N)=O)[C@H]3c2ccccc2)[C@H]2OC[C@H]([C@H](O)CO)O[C@H]2O5)cc1
- IC50 [12]: > 10 µM
- IC50 (HT-29 [6]): > 10 µM

Now from value to molecule:

- IC50 (MDA-MB-435 [1]): 0.6 µM
- IC50 (MDA-MB-231 [2]): 0.6 µM
Compound: CCCC[C@H]1CCCC[C@H](C)[C@@H](O[C@H]2OC[C@@H](O)[C@@H](O)[C@H]2O)c2cc(O)c(c(O)c2)[C@@H](CCCC)CCCC[C@H](C)[C@@H](O[C@@H]2OC[C@@H](O)[C@@H](O)[C@H]2O)c2cc(O)c1c(O)c2

- IC50 (MDA-MB-231 [3]): 1 µM
Compound: CCC[C@H]1CCCCC[C@@H](C)c2cc(O)c(c(O)c2)[C@@H](CCCCO)CCCCC[C@@H](C)c2cc(O)c1c(O)c2

- IC50 (MDA-MB-435 [1]): > 25 µM
- IC50 (MDA-MB-231 [2]): > 25 µM
Compound: CCCCC(Cl)CCCC[C@H](C)[C@@H](O[C@@H]1OC[C@@H](O)[C@@H](O)[C@H]1O)c1cc(O)c([C@@H](CCCC)CCCC[C@H](O)[C@@H](OC(C)=O)c2cc(O)cc(O)c2)c(O)c1 (stereo partly drawn)

- IC50 (20S proteasome): 0.096 µM
Compound: CC[C@H](C)[C@@H]1NC(=O)[C@@H](CCC(N)=O)NC(=O)CNC(=O)[C@H](Cc2ccc(O)cc2)/N=C\[C@H](CC(C)C)NC(=O)[C@H](C(C)C)NC(=O)[C@H](CO)NC1=O

- IC50 (MDA-MB-435 [1]): 0.6 µM
- IC50 (MDA-MB-231 [2]): 0.6 µM
Compound: CCCC[C@H]1CCCC[C@H](C)Cc2cc(O)c(c(O)c2)[C@@H](CCCC)CCCC[C@H](C)[C@@H](O[C@@H]2OC[C@@H](O)[C@@H](O)[C@H]2O)c2cc(O)c1c(O)c2

- IC50 (MDA-MB-231 [3]): 1 µM
Compound: CCCC[C@H]1CCCCC[C@@H](C)c2cc(O)c(c(O)c2)[C@@H](CCC)CCCCC[C@@H](C)c2cc(O)c1c(O)c2

- IC50 (MDA-MB-435 [1]): 0.6 µM
- IC50 (MDA-MB-231 [2]): 0.6 µM
Compound: CCCC[C@H]1CCCC[C@H](C)[C@@H](O)c2cc(O)c(c(O)c2)[C@@H](CCCC)CCCC[C@H](C)[C@@H](O[C@@H]2OC[C@@H](O)[C@@H](O)[C@H]2O)c2cc(O)c1c(O)c2

- IC50 (MDA-MB-231 [3]): 1 µM
Compound: C[C@@H]1CCCCC[C@H](CCCCO)c2c(O)cc(cc2O)[C@H](C)CCCCC[C@H](CCCO)c2c(O)cc1cc2O
